In patent US20200361895A1, “NOVEL SULFONAMIDE CARBOXAMIDE COMPOUNDS” (Inflazome Limited, priority 2017, published 2020):
Where a name gives a salt, the structure may show the parent alone.

Target: NLRP3 (Homo sapiens, UniProt Q96P20)
Experiment: THP-1 cells pyroptosis assay (LPS + nigericin, resazurin readout; THP IC50)
Type: cell-based
Parameters: Seed THP-1 cells (25,000 cells/well) containing 1.0 μg/ml LPS in 40 μl of RPMI medium; host or cells: THP-1 cells
Protocol: THP-1 cells (ATCC #TIB-202) were grown in RPMI containing L-glutamine (Gibco #11835) supplemented with 1 mM sodium pyruvate (Sigma #S8636) and penicillin (100 units/ml)/streptomycin (0.1 mg/ml) (Sigma #P4333) in 10% Fetal Bovine Serum (FBS) (Sigma #F0804). The cells were routinely passaged and grown to confluency (˜10^6 cells/ml). On the day of the experiment, THP-1 cells were harvested and resuspended into RPMI medium (without FBS). The cells were then counted and viability (>90%) checked by Trypan blue (Sigma #T8154). Appropriate dilutions were made to give a concentration of 625,000 cells/ml. To this diluted cell solution was added LPS (Sigma #L4524) to give a 1 μg/ml Final Assay Concentration (FAC). 40 μl of the final preparation was aliquoted into each well of a 96-well plate. The plate thus prepared was used for compound screening.
The following method step-by-step assay was followed for compound screening. • 1. Seed THP-1 cells (25,000 cells/well) containing 1.0 μg/ml LPS in 40 μl of RPMI medium (without FBS) in 96-well, black walled, clear bottom cell culture plates coated with poly-D-lysine (VWR #734-0317) • 2. Add 5 μcompound (8 points half-log dilution, with 10 μM top dose) or vehicle (DMSO 0.1% FAC) to the appropriate wells • 3. Incubate for 3 hrs at 37° C. and 5% CO2 • 4. Add 5 μnigericin (Sigma #N7143) (FAC 5 μM) to all wells • 5. Incubate for 1 hr at 37° C. and 5% CO2 • 6. At the end of the incubation period, spin plates at 300×g for 3 mins and remove supernatant • 7. Then add 50 μl of resazurin (Sigma #R7017) (FAC 100 μM resazurin in RPMI medium without FBS) and incubate plates for a further 1-2 hrs at 37° C. and 5% CO2 • 8. Plates were read in an Envision reader at Ex 560 nm and Em 590 nm • 9. IC50 data is fitted to a non-linear regression equation (log inhibitor vs response-variable slope 4-parameters)

Chain of NLRP3 (Q96P20 whole entry): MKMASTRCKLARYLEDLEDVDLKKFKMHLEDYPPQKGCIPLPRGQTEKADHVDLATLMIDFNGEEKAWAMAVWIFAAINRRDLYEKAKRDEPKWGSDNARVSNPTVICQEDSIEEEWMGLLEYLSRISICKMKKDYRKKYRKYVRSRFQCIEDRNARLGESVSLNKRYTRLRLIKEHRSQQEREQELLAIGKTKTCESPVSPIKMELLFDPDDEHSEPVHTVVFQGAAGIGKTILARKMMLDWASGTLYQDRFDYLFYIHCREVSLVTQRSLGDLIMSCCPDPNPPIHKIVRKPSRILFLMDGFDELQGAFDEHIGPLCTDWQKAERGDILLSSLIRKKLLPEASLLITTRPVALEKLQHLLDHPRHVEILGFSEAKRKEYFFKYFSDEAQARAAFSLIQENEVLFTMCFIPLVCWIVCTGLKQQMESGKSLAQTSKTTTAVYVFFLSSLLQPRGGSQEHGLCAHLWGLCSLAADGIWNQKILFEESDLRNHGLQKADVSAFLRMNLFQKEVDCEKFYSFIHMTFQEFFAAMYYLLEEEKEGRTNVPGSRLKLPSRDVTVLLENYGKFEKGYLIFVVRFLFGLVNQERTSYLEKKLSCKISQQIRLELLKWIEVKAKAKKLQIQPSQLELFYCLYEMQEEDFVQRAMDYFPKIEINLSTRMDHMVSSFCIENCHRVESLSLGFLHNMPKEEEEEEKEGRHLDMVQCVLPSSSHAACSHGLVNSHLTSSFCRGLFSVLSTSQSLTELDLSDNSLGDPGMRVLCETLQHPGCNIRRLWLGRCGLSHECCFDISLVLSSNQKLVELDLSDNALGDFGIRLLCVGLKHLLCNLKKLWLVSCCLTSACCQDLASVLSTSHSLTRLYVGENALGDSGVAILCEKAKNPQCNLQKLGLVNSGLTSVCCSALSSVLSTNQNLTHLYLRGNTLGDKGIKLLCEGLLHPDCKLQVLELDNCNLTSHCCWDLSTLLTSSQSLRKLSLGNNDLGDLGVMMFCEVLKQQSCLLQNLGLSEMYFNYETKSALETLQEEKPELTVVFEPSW

| Structure (SMILES) | IC50 |
| --- | --- |
| CC(C)c1cc(F)cc(-c2cnn(C)c2)c1NC(=O)NS(=O)(=O)c1ccn(C(C)C)n1 [Example 2, N-((4-Fluoro-2-iso-propyl-6-(1-methyl-1H-pyrazol-4-yl)phenyl)carbamoyl)-1-iso-propyl-1H-pyrazole-3-sulfonamide] | ≤ 5 µM |
| CC(C)c1cc(F)cc(-c2cncn2C)c1NC(=O)NS(=O)(=O)c1ccn(C(C)C)n1 [Example 3, N-((4-Fluoro-2-iso-propyl-6-(1-methyl-1H-imidazol-5-yl)phenyl)carbamoyl)-1-iso-propyl-1H-pyrazole-3-sulfonamide] | ≤ 5 µM |
| CC(C)c1cc(F)cc(-c2ccccc2)c1NC(=O)NS(=O)(=O)c1ccn(C(C)C)n1 [Example 4, N-((5-Fluoro-3-iso-propyl-[1,1′-biphenyl]-2-yl)carbamoyl)-1-iso-propyl-1H-pyrazole-3-sulfonamide] | ≤ 5 µM |
| CC(C)c1cc(F)cc(-c2ccnn2C)c1NC(=O)NS(=O)(=O)c1ccn(C(C)C)n1 [Example 5, N-((4-Fluoro-2-iso-propyl-6-(1-methyl-1H-pyrazol-5-yl)phenyl)carbamoyl)-1-iso-propyl-1H-pyrazole-3-sulfonamide] | ≤ 5 µM |
| CC(C)c1cc(F)cc(-c2cncs2)c1NC(=O)NS(=O)(=O)c1ccn(C(C)C)n1 [Example 6, N-((4-Fluoro-2-iso-propyl-6-(thiazol-5-yl)phenyl)carbamoyl)-1-iso-propyl-1H-pyrazole-3-sulfonamide] | ≤ 5 µM |
| CC(C)c1cc(F)cc(-c2cnoc2)c1NC(=O)NS(=O)(=O)c1ccn(C(C)C)n1 [Example 7, N-((4-Fluoro-2-iso-propyl-6-(isoxazol-4-yl)phenyl)carbamoyl)-1-iso-propyl-1H-pyrazole-3-sulfonamide] | ≤ 5 µM |
| CC(C)c1cc(F)cc(-c2cccc(C#N)c2)c1NC(=O)NS(=O)(=O)c1ccn(C(C)C)n1 [Example 8, N-((3′-Cyano-5-fluoro-3-iso-propyl-[1,1′-biphenyl]-2-yl)carbamoyl)-1-iso-propyl-1H-pyrazole-3-sulfonamide, sodium salt] | ≤ 5 µM |
| CC(C)c1cc(F)cc(-c2ccc(C#N)cc2)c1NC(=O)NS(=O)(=O)c1ccn(C(C)C)n1 [Example 9, N-((4′-Cyano-5-fluoro-3-iso-propyl-[1,1′-biphenyl]-2-yl)carbamoyl)-1-iso-propyl-1H-pyrazole-3-sulfonamide, sodium salt] | ≤ 5 µM |
| Cc1cc(-c2cc(F)cc(C(C)C)c2NC(=O)NS(=O)(=O)c2ccn(C(C)C)n2)n(C)n1 [Example 11, N-((2-(1,3-Dimethyl-1H-pyrazol-5-yl)-4-fluoro-6-iso-propylphenyl)carbamoyl)-1-iso-propyl-1H-pyrazole-3-sulfonamide, partial ammonium salt] | ≤ 0.5 µM |
| Cc1cc(-c2cc(F)cc(C(C)C)c2NC(=O)NS(=O)(=O)c2ccn(C(C)C)n2)ccn1 [Example 13, N-((4-Fluoro-2-iso-propyl-6-(2-methylpyridin-4-yl)phenyl)carbamoyl)-1-iso-propyl-1H-pyrazole-3-sulfonamide, partial ammonium salt] | ≤ 0.5 µM |
| Cc1ncccc1-c1cc(F)cc(C(C)C)c1NC(=O)NS(=O)(=O)c1ccn(C(C)C)n1 [Example 14, N-((4-Fluoro-2-iso-propyl-6-(2-methylpyridin-3-yl)phenyl)carbamoyl)-1-iso-propyl-1H-pyrazole-3-sulfonamide, partial ammonium salt] | ≤ 5 µM |
| Cc1ccc(-c2cc(F)cc(C(C)C)c2NC(=O)NS(=O)(=O)c2ccn(C(C)C)n2)cn1 [Example 15, N-((4-Fluoro-2-iso-propyl-6-(6-methylpyridin-3-yl)phenyl)carbamoyl)-1-iso-propyl-1H-pyrazole-3-sulfonamide, partial ammonium salt] | ≤ 5 µM |
| CC(C)c1cc(F)cc(-c2cncc(Cl)c2)c1NC(=O)NS(=O)(=O)c1ccn(C(C)C)n1 [Example 16, N-((2-(5-Chloropyridin-3-yl)-4-fluoro-6-iso-propylphenyl)carbamoyl)-1-iso-propyl-1H-pyrazole-3-sulfonamide, partial ammonium salt] | ≤ 5 µM |
| COc1cncc(-c2cc(F)cc(C(C)C)c2NC(=O)NS(=O)(=O)c2ccn(C(C)C)n2)c1 [Example 17, N-((4-Fluoro-2-iso-propyl-6-(5-methoxypyridin-3-yl)phenyl)carbamoyl)-1-iso-propyl-1H-pyrazole-3-sulfonamide, partial ammonium salt] | ≤ 5 µM |
| CC(C)c1cc(F)cc(-c2cncnc2)c1NC(=O)NS(=O)(=O)c1ccn(C(C)C)n1 [Example 18, N-((4-Fluoro-2-iso-propyl-6-(pyrimidin-5-yl)phenyl)carbamoyl)-1-iso-propyl-1H-pyrazole-3-sulfonamide] | ≤ 1 µM |
| COc1ccc(-c2cc(F)cc(C(C)C)c2NC(=O)NS(=O)(=O)c2ccn(C(C)C)n2)cn1 [Example 19, N-((4-Fluoro-2-iso-propyl-6-(6-methoxypyridin-3-yl)phenyl)carbamoyl)-1-iso-propyl-1H-pyrazole-3-sulfonamide] | ≤ 1 µM |

The remaining lines, values ahead:

| IC50 | Structure (SMILES) |
| --- | --- |
| ≤ 5 µM | Cc1ccncc1-c1cc(F)cc(C(C)C)c1NC(=O)NS(=O)(=O)c1ccn(C(C)C)n1 [Example 20, N-((4-Fluoro-2-iso-propyl-6-(4-methylpyridin-3-yl)phenyl)carbamoyl)-1-iso-propyl-1H-pyrazole-3-sulfonamide, partial ammonium salt] |
| ≤ 5 µM | CC(C)c1cc(F)cc(-c2cncc(F)c2)c1NC(=O)NS(=O)(=O)c1ccn(C(C)C)n1 [Example 21, N-((4-Fluoro-2-(5-fluoropyridin-3-yl)-6-isopropylphenyl)carbamoyl)-1-iso-propyl-1H-pyrazole-3-sulfonamide, partial ammonium salt] |
| ≤ 1 µM | Cc1cnccc1-c1cc(F)cc(C(C)C)c1NC(=O)NS(=O)(=O)c1ccn(C(C)C)n1 [Example 22, N-((4-Fluoro-2-iso-propyl-6-(3-methylpyridin-4-yl)phenyl)carbamoyl)-1-iso-propyl-1H-pyrazole-3-sulfonamide] |
| ≤ 5 µM | COc1cc(-c2cc(F)cc(C(C)C)c2NC(=O)NS(=O)(=O)c2ccn(C(C)C)n2)cc(C)n1 [Example 26, N-((4-Fluoro-2-iso-propyl-6-(2-methoxy-6-methylpyridin-4-yl)phenyl)carbamoyl)-1-iso-propyl-1H-pyrazole-3-sulfonamide] |
| ≤ 5 µM | CCc1cc(-c2cc(F)cc(C(C)C)c2NC(=O)NS(=O)(=O)c2ccn(C(C)C)n2)ccn1 [Example 29, N-((2-(2-Ethylpyridin-4-yl)-4-fluoro-6-iso-propylphenyl)carbamoyl)-1-iso-propyl-1H-pyrazole-3-sulfonamide] |
| ≤ 5 µM | CC(C)c1cc(F)cc(-c2cnn(C)c2)c1NC(=O)NS(=O)(=O)c1cn(C(C)C)cn1 [Example 31, N-((4-Fluoro-2-iso-propyl-6-(1-methyl-1H-pyrazol-4-yl)phenyl)carbamoyl)-1-iso-propyl-1H-imidazole-4-sulfonamide] |
| ≤ 5 µM | CC(C)c1cc(F)cc(-c2cncnc2)c1NC(=O)NS(=O)(=O)c1cc(CN(C)C)n(C)n1 [Example 42, 5-((Dimethylamino)methyl)-N-((4-fluoro-2-isopropyl-6-(pyrimidin-5-yl)phenyl)carbamoyl)-1-methyl-1H-pyrazole-3-sulfonamide] |
| ≤ 5 µM | CC(C)c1cc(F)cc(-c2cncnc2)c1NC(=O)NS(=O)(=O)c1cc(CN(C)C)n(C(C)C)n1 [Example 43, 5-((Dimethylamino)methyl)-N-((4-fluoro-2-isopropyl-6-(pyrimidin-5-yl)phenyl)carbamoyl)-1-isopropyl-1H-pyrazole-3-sulfonamide] |
| ≤ 1 µM | CC(C)c1cc(F)cc(-c2ccnc(C(F)(F)F)c2)c1NC(=O)NS(=O)(=O)c1ccn(C(C)C)n1 [Example 47, N-((4-Fluoro-2-isopropyl-6-(2-(trifluoromethyl)pyridin-4-yl)phenyl)carbamoyl)-1-isopropyl-1H-pyrazole-3-sulfonamide] |
| ≤ 5 µM | CC(C)c1cc(F)cc(-c2ccnc(N(C)C)c2)c1NC(=O)NS(=O)(=O)c1ccn(C(C)C)n1 [Example 50, N-((2-(2-(Dimethylamino)pyridin-4-yl)-4-fluoro-6-isopropylphenyl)carbamoyl)-1-isopropyl-1H-pyrazole-3-sulfonamide] |
| ≤ 5 µM | CC(C)c1cc(F)cc(-c2ccnc(C(N)=O)c2)c1NC(=O)NS(=O)(=O)c1cc(CN(C)C)n(C)n1 [Example 67, 4-(2-(3-((5-((Dimethylamino)methyl)-1-methyl-1H-pyrazol-3-yl)sulfonyl)ureido)-5-fluoro-3-isopropylphenyl)picolinamide] |
